{"source": "PubChem BioAssay AID1259411", "about": "(Chemical Carcinogenesis Research Information System (CCRIS), 2018)", "test_system": "rodent carcinogenicity bioassays, tumor incidence", "assay": "CCRIS carcinogenicity studies", "outline": "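NCI-built, expert-reviewed records of carcinogenicity and related test outcomes (mutagenicity, tumor promotion/inhibition) compiled from published and report sources, historical span 1985-2011, not updated.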", "note": "Activity calls are given as the source filed them. The rule behind the calls is not given here."}
{"smiles": "C=CCl", "values": [{"measurement": "carcinogen call", "setting": "Species: HAMSTER, Strain/Sex: SYRIAN/MALE, Route: INHALATION, Dose: 0, 50, 250, 500, 2500, 6000, 10000 PPM 4 HR/D, 5 D/WK FOR (STUDY DURATION: 109 WK), Dose: 0, 50, 250, 500, 2500, 6000, 10000 PPM 4 HR/D, 5 D/WK FOR (STUDY DURATION: 109 WK), Tumor Site: Type of Lesion: INTEGUMENTARY SYSTEM (SKIN): EPITHELIOMA, FORESTOMACH: PAPILLOMA OR ACANTHOMA, LIVER: ANGIOMA OR ANGIOSARCOMA, Tumor Site: Type of Lesion: INTEGUMENTARY SYSTEM (SKIN): EPITHELIOMA, FORESTOMACH: PAPILLOMA OR ACANTHOMA, LIVER: ANGIOMA OR ANGIOSARCOMA", "result": "active; positive"}, {"measurement": "carcinogen call", "setting": "Species: HAMSTER, Strain/Sex: SYRIAN, Route: INHALATION, Tumor Site: Type of Lesion: LIVER", "result": "active; positive"}, {"measurement": "carcinogen call", "setting": "Species: HUMAN, Route: INHALATION, Tumor Site: Type of Lesion: LIVER, BRAIN, LUNG, Tumor Site: Type of Lesion: LIVER, BRAIN, LUNG", "result": "active; positive"}, {"measurement": "carcinogen call", "setting": "Species: MOUSE, Strain/Sex: ICR/FEMALE, Route: INHALATION, Dose: 0, 50, 500, 5000, 50000 PPM ONCE FOR 1 HR (STUDY DURATION: 18 MO), Dose: 0, 50, 500, 5000, 50000 PPM ONCE FOR 1 HR (STUDY DURATION: 18 MO), Tumor Site: Type of Lesion: LUNG: ALVEOLAR/BRONCHIOLAR ADENOMA OR CARCINOMA", "result": "active; positive"}, {"measurement": "carcinogen call", "setting": "Species: MOUSE, Strain/Sex: ICR/MALE, Route: INHALATION, Dose: 0, 50, 500, 5000, 50000 PPM ONCE FOR 1 HR (STUDY DURATION: 18 MO), Dose: 0, 50, 500, 5000, 50000 PPM ONCE FOR 1 HR (STUDY DURATION: 18 MO), Tumor Site: Type of Lesion: LUNG: ALVEOLAR/BRONCHIOLAR ADENOMA OR CARCINOMA", "result": "active; positive"}, {"measurement": "carcinogen call", "setting": "Species: MOUSE, Strain/Sex: SWISS/MALE,FEMALE, Route: INHALATION, Dose: 0, 50, 250, 500, 2500, 6000, 10000 PPM 4 HR/D, 5 D/WK FOR 30 WK (STUDY DURATION: 81 WK), Dose: 0, 50, 250, 500, 2500, 6000, 10000 PPM 4 HR/D, 5 D/WK FOR 30 WK (STUDY DURATION: 81 WK), Tumor Site: Type of Lesion: LIVER: ANGIOMA, ANGIOSARCOMA, LUNG: TUMOR (NOS), MAMMARY GLAND: CARCINOMA, Tumor Site: Type of Lesion: LIVER: ANGIOMA, ANGIOSARCOMA, LUNG: TUMOR (NOS), MAMMARY GLAND: CARCINOMA", "result": "active; positive"}, {"measurement": "carcinogen call", "setting": "Species: MOUSE, Strain/Sex: SWISS, Route: INHALATION, Tumor Site: Type of Lesion: LIVER, LUNG, MAMMARY GLAND, Tumor Site: Type of Lesion: LIVER, LUNG, MAMMARY GLAND", "result": "active; positive"}, {"measurement": "carcinogen call", "setting": "Species: RAT, Route: INHALATION, Tumor Site: Type of Lesion: LIVER, LUNG, KIDNEY, EAR (ZYMBAL GLAND), Tumor Site: Type of Lesion: LIVER, LUNG, KIDNEY, EAR (ZYMBAL GLAND)", "result": "active; positive"}, {"measurement": "carcinogen call", "setting": "Species: RAT, Strain/Sex: SPRAGUE-DAWLEY/FEMALE, Route: GAVAGE, Dose: 0, 0.03, 0.3, 1, 3.33, 16.65, 50 MG/KG BW IN OLIVE OIL 1/D 4-5 D/WK FOR 52-59 WK (STUDY DURATION: LIFETIME), Dose: 0, 0.03, 0.3, 1, 3.33, 16.65, 50 MG/KG BW IN OLIVE OIL 1/D 4-5 D/WK FOR 52-59 WK (STUDY DURATION: LIFETIME), Tumor Site: Type of Lesion: [BRAIN WAS ONLY SITE EVALUATED]", "result": "inactive; negative"}, {"measurement": "carcinogen call", "setting": "Species: RAT, Strain/Sex: SPRAGUE-DAWLEY/FEMALE, Route: INHALATION, Dose: 0, 50, 250, 500, 2500, 6000, 10000 PPM IN AIR 4 HR/D 5 D/WK FOR 17 WK (STUDY DURATION: LIFETIME), Dose: 0, 50, 250, 500, 2500, 6000, 10000 PPM IN AIR 4 HR/D 5 D/WK FOR 17 WK (STUDY DURATION: LIFETIME), Tumor Site: Type of Lesion: BRAIN: NEUROBLASTOMA [ONLY SITE EVALUATED]", "result": "active; positive"}, {"measurement": "carcinogen call", "setting": "Species: RAT, Strain/Sex: SPRAGUE-DAWLEY/FEMALE, Route: INHALATION, Dose: 0, 2500 PPM 4 HR/D 5 D/WK FOR 7 WK THEN 7 HR/D 5 D/WK FOR 8 WK ADMINISTERED TO RAT EMBRYOS BEGINNING ON 12TH DAY OF GEST, Tumor Site: Type of Lesion: LIVER: HEPATOMA, ANGIOSARCOMA, BRAIN: NEUROBLASTOMA", "result": "active; positive"}, {"measurement": "carcinogen call", "setting": "Species: RAT, Strain/Sex: SPRAGUE-DAWLEY/FEMALE, Route: INHALATION, Dose: 0, 2500 PPM 4 HR/D 5 D/WK FOR 7 WK THEN 7 HR/D 5 D/WK FOR 69 WK ADMINISTERED TO BREEDER RATS (STUDY DURATION: 76 WK), Tumor Site: Type of Lesion: BRAIN: NEUROBLASTOMA, LIVER, HEPATOCARCINOMA, ANGIOSARCOMA, Tumor Site: Type of Lesion: BRAIN: NEUROBLASTOMA, LIVER, HEPATOCARCINOMA, ANGIOSARCOMA", "result": "active; positive"}, {"measurement": "carcinogen call", "setting": "Species: RAT, Strain/Sex: SPRAGUE-DAWLEY/FEMALE, Route: INHALATION, Dose: 0, 2500 PPM 4 HR/D 5 D/WK FOR 7 WK THEN 7 HR/D 5 D/WK FOR 69 WK ADMINISTERED TO RAT EMBRYOS BEGINNING ON 12TH DAY OF GES, Tumor Site: Type of Lesion: BRAIN: NEUROBLASTOMA, LIVER, HEPATOCARCINOMA, ANGIOSARCOMA, Tumor Site: Type of Lesion: BRAIN: NEUROBLASTOMA, LIVER, HEPATOCARCINOMA, ANGIOSARCOMA", "result": "active; positive"}, {"measurement": "carcinogen call", "setting": "Species: RAT, Strain/Sex: SPRAGUE-DAWLEY/FEMALE, Route: INHALATION, Dose: 0, 6000, 10000 PPM IN AIR 1 HR/D 4 D/WK FOR 25 WK (STUDY DURATION: LIFETIME), Dose: 0, 6000, 10000 PPM IN AIR 1 HR/D 4 D/WK FOR 25 WK (STUDY DURATION: LIFETIME), Tumor Site: Type of Lesion: [BRAIN WAS ONLY SITE EVALUATED]", "result": "inactive; negative"}]}
